From ChEMBL document CHEMBL1201862, “PubChem BioAssay data set” (2004)
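Growth conditions: 96-well plates. Treatment: test compound, 48 hours, 5 concentrations. Analysis: linear interpolation between bracketing concentrations; unreached endpoints set to highest concentration. Here, GI50 denotes the concentration required for 50% inhibition of growth.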 The source made the active and inactive calls. Rule as the data show it: active = GI50 up to about 1.1 µM and inactive = higher. Non-standard residues stand in square brackets, D forms with d. Residues, ends and D or L forms follow the SMILES beside them. *: point of attachment. Ac5c = NC1(C(=O)O)CCCC1; Boc = CC(C)(C)OC(=O)*; tBu = CC(C)(C)*

Tests used:
Test in all cases: DTP human tumour cell line panel, 48 h
[1] = test system: NCI/ADR-RES
[2] = test system: UACC-257
[3] = test system: 786-0
[4] = test system: HCT-15
[5] = test system: OVCAR-3
[6] = test system: NCI-H23
[7] = test system: MDA-MB-435
[8] = test system: SK-MEL-5
[9] = test system: SF-295
[10] = test system: HT-29
[11] = test system: PC-3
[12] = test system: IGROV-1
[13] = test system: U-251
[14] = test system: T47D
[15] = test system: MDA-N
[16] = test system: UO-31
[17] = test system: MOLT-4
[18] = test system: M14
[19] = test system: SK-MEL-2
[20] = test system: SF-539

Structure (SMILES)	GI50 [1]	GI50 [2]	GI50 [3]	GI50 [4] [µM]	GI50 [5]	GI50 [6]	GI50 [7]	GI50 [8]	GI50 [9]	GI50 [10]	GI50 [11]	GI50 [12]	GI50 [13]	GI50 [14]	GI50 [15]	GI50 [16]	GI50 [17]	GI50 [18]	GI50 [19]	GI50 [20]
CC1(C)OC(=O)C2(O1)C(=O)C1CCCCC12 (centres undefined)	> 100 µM (inactive)	40 µM (inactive)	35.6 µM (inactive)	86.9	> 100 µM (inactive)	> 100 µM (inactive)	> 100 µM (inactive)	> 100 µM (inactive)	> 100 µM (inactive)	> 100 µM (inactive)	> 100 µM (inactive)	> 100 µM (inactive)	97.1 µM (inactive)	> 100 µM (inactive)	30.9 µM (inactive)	82.2 µM (inactive)	> 100 µM (inactive)	> 100 µM (inactive)	> 100 µM (inactive)	–
CN(Cc1cnc2nc(N)nc(N)c2n1)c1ccc(C(=O)NC(CCC(=O)NC(CC(P(=O)(O)O)P(=O)(O)O)C(=O)O)C(=O)O)cc1 (centres undefined)	> 100 µM (inactive)	> 100 µM (inactive)	> 100 µM (inactive)	> 100	> 100 µM (inactive)	> 100 µM (inactive)	> 100 µM (inactive)	> 100 µM (inactive)	> 100 µM (inactive)	> 100 µM (inactive)	> 100 µM (inactive)	> 100 µM (inactive)	> 100 µM (inactive)	> 100 µM (inactive)	> 100 µM (inactive)	> 100 µM (inactive)	> 100 µM (inactive)	> 100 µM (inactive)	> 100 µM (inactive)	–
C/C=C1/CC(C)C(C)(O)C(=O)OCC2C(O)CN3CCC(OC1=O)C23 (centres undefined)	> 100 µM (inactive)	> 100 µM (inactive)	> 100 µM (inactive)	> 100	–	> 100 µM (inactive)	> 100 µM (inactive)	> 100 µM (inactive)	> 100 µM (inactive)	> 100 µM (inactive)	> 100 µM (inactive)	> 100 µM (inactive)	> 100 µM (inactive)	> 100 µM (inactive)	> 100 µM (inactive)	–	> 100 µM (inactive)	> 100 µM (inactive)	> 100 µM (inactive)	> 100 µM (inactive)
CC(OC(C)(C)C)C1NC(=O)C(CCCCNC(=O)OC(C)(C)C)NC(=O)C(Cc2c[nH]c3ccccc23)NC(=O)C(Cc2ccccc2)NC(=O)C2(CCCC2)NC(=O)C(Cc2ccccc2)NC1=O (centres undefined) (cyclo([Ac5c]FWK(Boc)T(tBu)F); configuration not given here)	> 100 µM (inactive)	20.7 µM (inactive)	16 µM (inactive)	> 100	26 µM (inactive)	36.9 µM (inactive)	14.7 µM (inactive)	15.9 µM (inactive)	29.9 µM (inactive)	24 µM (inactive)	26.9 µM (inactive)	16.2 µM (inactive)	15.8 µM (inactive)	10.4 µM (inactive)	43.2 µM (inactive)	–	7.71 µM (inactive)	16.7 µM (inactive)	–	36.9 µM (inactive)
COC(=O)C1(C(=O)OC)N=C(C)OC1c1ccccn1 (centres undefined)	> 100 µM (inactive)	> 100 µM (inactive)	> 100 µM (inactive)	> 100	> 100 µM (inactive)	> 100 µM (inactive)	> 100 µM (inactive)	> 100 µM (inactive)	> 100 µM (inactive)	–	> 100 µM (inactive)	> 100 µM (inactive)	> 100 µM (inactive)	> 100 µM (inactive)	> 100 µM (inactive)	> 100 µM (inactive)	> 100 µM (inactive)	> 100 µM (inactive)	> 100 µM (inactive)	–
C[C@@H]1OC2(O)[C@@H]3CCCN3C(=O)N(Cc3ccccc3)N2C1=O (some centres undefined)	> 100 µM (inactive)	> 100 µM (inactive)	> 100 µM (inactive)	> 100	> 100 µM (inactive)	> 100 µM (inactive)	> 100 µM (inactive)	> 100 µM (inactive)	> 100 µM (inactive)	> 100 µM (inactive)	> 100 µM (inactive)	> 100 µM (inactive)	–	> 100 µM (inactive)	> 100 µM (inactive)	–	> 100 µM (inactive)	> 100 µM (inactive)	> 100 µM (inactive)	> 100 µM (inactive)
CCOc1ccc2c(c1)/C(=C(\C(Cl)=C(Cl)Cl)[N+](=O)[O-])N2	> 100 µM (inactive)	> 100 µM (inactive)	> 100 µM (inactive)	> 100	> 100 µM (inactive)	> 100 µM (inactive)	> 100 µM (inactive)	–	> 100 µM (inactive)	> 100 µM (inactive)	> 100 µM (inactive)	–	> 100 µM (inactive)	48.9 µM (inactive)	> 100 µM (inactive)	> 100 µM (inactive)	> 100 µM (inactive)	> 100 µM (inactive)	> 100 µM (inactive)	> 100 µM (inactive)
NC(=O)NCCCC(NC(=O)OCCCCCCn1ccc(=O)[nH]c1=O)C(=O)O (centres undefined)	> 100 µM (inactive)	> 100 µM (inactive)	> 100 µM (inactive)	> 100	> 100 µM (inactive)	> 100 µM (inactive)	> 100 µM (inactive)	–	> 100 µM (inactive)	> 100 µM (inactive)	> 100 µM (inactive)	> 100 µM (inactive)	> 100 µM (inactive)	> 100 µM (inactive)	> 100 µM (inactive)	> 100 µM (inactive)	> 100 µM (inactive)	> 100 µM (inactive)	> 100 µM (inactive)	> 100 µM (inactive)
Cc1cc(O)c2c(c1O)C(=O)c1c(O)ccc(O)c1C2=O [Cynodontin]	> 100 µM (inactive)	> 100 µM (inactive)	82 µM (inactive)	> 100	> 100 µM (inactive)	> 100 µM (inactive)	> 100 µM (inactive)	> 100 µM (inactive)	> 100 µM (inactive)	> 100 µM (inactive)	> 100 µM (inactive)	> 100 µM (inactive)	> 100 µM (inactive)	> 100 µM (inactive)	> 100 µM (inactive)	–	> 100 µM (inactive)	> 100 µM (inactive)	> 100 µM (inactive)	> 100 µM (inactive)
Cc1ccc2nc(-c3ccccc3)cc(=O)n2c1	69.7 µM (inactive)	> 10 µM (inactive)	> 100 µM (inactive)	> 100	> 100 µM (inactive)	> 100 µM (inactive)	> 100 µM (inactive)	> 100 µM (inactive)	> 100 µM (inactive)	> 100 µM (inactive)	> 100 µM (inactive)	> 100 µM (inactive)	> 100 µM (inactive)	38.6 µM (inactive)	> 100 µM (inactive)	–	> 100 µM (inactive)	> 100 µM (inactive)	–	> 100 µM (inactive)
